Organism: Rattus norvegicus
Test: Effect on the growth of axons of hippocampal neurons stimulated by basic fibroblast growth factor (bFGF), no. of axonal branch points/cell at 51 hr upon incubation with bFGF 1.52 0.09
Format: functional

SMILES | No. of axonal branch points/cell
CCCC[C@H](C)[C@@H](OC(=O)C[C@H](CC(=O)O)C(=O)O)[C@@H](C[C@H](C)C[C@@H](O)CCCC[C@@H](O)C[C@H](O)[C@H](C)N)OC(=O)C[C@H](CC(=O)O)C(=O)O | 1.12
CCCCCCCC(=O)N[C@@H](CO)[C@H](O)/C=C/c1ccccc1 | 1.4
CCCCCCC/C=C/[C@@H](O)[C@H](CO)NC(=O)CCCCC | 1.3
CC(=O)N[C@@H](CO)[C@H](O)/C=C/c1ccccc1 | 1.3
CCCCCCC/C=C/[C@H](O)[C@H](CO)NC(=O)CCCCC | 1.18
CCCCCC(=O)N[C@@H](CO)[C@H](O)/C=C/c1ccccc1 | 1.45
CCCC(=O)N[C@@H](CO)[C@H](O)/C=C/c1ccccc1 | 1.38
CCCCCC(=O)N[C@@H](CO)[C@@H](O)/C=C/c1ccccc1 | 1.22
CCCCCCC/C=C/[C@@H](O)[C@H](CO)NC(C)=O | 1.5

Reference: ChEMBL document CHEMBL1132305, “Effect of aromatic short-chain analogues of ceramide on axonal growth in hippocampal neurons” (1999)
